From paper PMC8780964, “Evaluation of the Pharmacokinetics of the Pancreastatin Inhibitor PSTi8 Peptide in Rats: Integration of In Vitro and In Vivo Findings” (Molecules, 2022)
Entries after “also recorded” stand apart in the source; their conditions may differ. Ends that are not written are not given here.

Key:
[1] = Microsomal metabolic stability study; assay type: in vitro ADME, SD rats; details: 5 µM
Procedure: RLM was prepared from SD rats from our lab, as previously reported. In vitro metabolic stability of PSTi8 was determined using RLM. The reaction milieu was prepared by adding 50 mM Tris buffer (pH 7.4), 40 mM MgCl2 pre-incubated at 37 °C along with RLM (0.5 mg/mL) and spiked at a concentration (5 µM) of PSTi8. The reaction was started with NADPH (1 mM) and without NADPH (negative control using Tris buffer). A total of 100 µL samples were collected at 0, 5, 15, 30, 45 and 60 min, and the reaction was quenched with liquid nitrogen. Samples were processed with the SPE procedure and analyzed using the LC-MS/MS method. Negative control was used to assess the peptide stability in the reaction milieu and the positive control (Testosterone, 25 µM) was incubated to obtain the microsomal activity.

[2] = Dose proportionality PK study, i.p., male SD rats; details: for AUC(0-inf) / Cmax / Tmax / half-life: male, SD, rat, plasma, ip
Procedure: Male SD rats were utilized in this study and distributed into two groups (each group contained 6 animals). To each group, PSTi8 was administered i.p. at a dose of 10 and 20 mg/kg in rats.
(§1) After dosing in rats, blood (250 µL) samples were collected in EDTA containing microcentrifuge tubes at 0.08, 0.16, 0.33, 0.50, 0.75, 1, 2, 3, 4, 5 and 6 h time points. Plasma was separated from the blood after centrifugation and kept in a −80 °C freezer for LC-MS/MS analysis.
The PK parameters of PSTi8 were estimated with a one-compartmental PK model in Phoenix WinNonlin. […] The PK parameters include the elimination constant (K10), absorption constant (K01), Tmax, elimination half-life (K10-HL), absorption half-life (K01-HL), Cmax, AUC (stands for model derived AUC0-∞), CL/F, mean residence time (MRT) and Vd/F. The bioavailability of PSTi8 was determined using the ratio between the AUC from i.p. or s.c. and i.v. routes, after normalizing the dose.

[3] = Blood–plasma partitioning study (KRBC/PL)
Procedure: Fresh blood was collected from SD rats and used for the blood–plasma partitioning study. The blood was pre-incubated in a shaking water bath for 10 min at 37 ± 0.5 °C. […] During the study, the fresh rat plasma was separated from the same batch of whole blood. During the incubation time course, 250 µL aliquots of incubated whole blood samples were collected at different time points (0, 15, 30 and 60 min) and centrifuged at 10,000 g for 5 min at RT to obtain the plasma. At each time point, 100 µL aliquot of the reference plasma sample was collected. Both, 100 µL aliquot of generated plasma and reference plasma were processed and analyzed using the LC-MS/MS method. For the determination of hematocrit (Hc), heparinized whole blood (1.0 mL) was taken in a hematocrit tube and centrifuged at 2000 g for 30 min. The Hc for the whole blood was calculated by using Equation (2) [21, 22].

[4] = PK and bioavailability after i.v., i.p. and s.c. administration in male SD rats; details: for K01 (absorption constant) / K10 (elimination constant) / half-life: male SD rats
Procedure: Rats were distributed into three groups and each group contained 6 animals.
as §1
The i.p. and s.c. PK were best described by a one-compartment first-order PK model without lag time. The i.v. PK was well explained by a one-compartment model with a bolus input and first-order elimination rate. The PK parameters include the elimination constant (K10), absorption constant (K01), Tmax, elimination half-life (K10-HL), absorption half-life (K01-HL), Cmax, AUC (stands for model derived AUC0-∞), CL/F, mean residence time (MRT) and Vd/F. The bioavailability of PSTi8 was determined using the ratio between the AUC from i.p. or s.c. and i.v. routes, after normalizing the dose.

[5] = male, SD, rat, plasma, ip, 5 mg/kg
[6] = male, SD, rat, plasma, iv, 5 mg/kg
[7] = male, SD, rat, plasma, sc, 5 mg/kg

Q: Which “stability in rat liver microsomes (in words)” value ([1]; RLM 0.5 mg/mL, NADPH 1 mM) does the source give for PEGKGEQEHSQQKEEEEEMAV-NH2 [PSTi8] here?
A: stable; also recorded: high stability

Q: What about the “degradation in negative control experiment” value ([1]; RLM, without NADPH) of the same substance?
A: no degradation

Q: And the “K01 (absorption constant)” value ([2]; i.p. 10 mg/kg, male SD rats)?
A: 4.89 ± 1.74 h⁻¹

Q: And the “K10 (elimination constant)” value ([2]; i.p. 10 mg/kg, male SD rats)?
A: 1.33 ± 0.60 h⁻¹

Q: What about the “K01 (absorption constant)” value ([2]; i.p. 20 mg/kg, male SD rats) of the same substance?
A: 4.94 ± 0.97 h⁻¹

Q: What about the “K10 (elimination constant)” value ([2]; i.p. 20 mg/kg, male SD rats) of the same substance?
A: 1.26 ± 0.18 h⁻¹

Q: And the “PK pattern in dose proportionality study” value ([2]; i.p. 10 and 20 mg/kg, male SD rats)?
A: non-linear PK; also recorded: non-linear pharmacokinetics

Q: What about the AUC(0-inf) ([2]; 10 mg/kg) of the same substance?
A: 32400 ng·h/mL

Q: And the Cmax ([2]; 10 mg/kg)?
A: 24300 ng/mL

Q: And the Tmax ([2]; 10 mg/kg)?
A: 22.8 min

Q: What about the half-life ([2]; 10 mg/kg, K01-HL (absorption half-life), i.p. 10 mg/kg, male SD rats) of the same substance?
A: 9 ± 3 min

Q: What about the half-life ([2]; 10 mg/kg, K10-HL (elimination half-life), i.p. 10 mg/kg, male SD rats) of the same substance?
A: 35.4 ± 13.8 min

Q: And the AUC(0-inf) ([2]; 20 mg/kg)?
A: 111000 ng·h/mL

Q: What about the Cmax ([2]; 20 mg/kg) of the same substance?
A: 85600 ng/mL

Q: And the Tmax ([2]; 20 mg/kg)?
A: 22.8 min

Q: And the half-life ([2]; 20 mg/kg, K01-HL (absorption half-life), i.p. 20 mg/kg, male SD rats)?
A: 8.4 ± 1.8 min

Q: And the half-life ([2]; 20 mg/kg, K10-HL (elimination half-life), i.p. 20 mg/kg, male SD rats)?
A: 33.6 ± 5.4 min

Q: And the “RBC:plasma partition coefficient (KRBC/PL)” value ([3]; 0.206 µM, time not given)?
A: 2.46 ± 0.44

Q: What about the “blood–plasma partitioning” value ([3]; summary in abstract) of the same substance?
A: > 2

Q: What about the “K01 (absorption constant)” value ([4]; i.p. 5 mg/kg) of the same substance?
A: 2.90 ± 0.89 h⁻¹

Q: And the “K10 (elimination constant)” value ([4]; i.p. 5 mg/kg)?
A: 1.63 ± 0.33 h⁻¹

Q: And the “K10 (elimination constant)” value ([4]; i.v. 5 mg/kg)?
A: 3.79 ± 2.19 h⁻¹

Q: What about the AUC(0-inf) [4, 5] of the same substance?
A: 8100 ± 1040 ng·h/mL

Q: And the Cmax [4, 5]?
A: 6050 ± 348 ng/mL

Q: And the Tmax [4, 5]?
A: 28.8 min

Q: And the bioavailability [4, 5]?
A: 95 ± 12.2%

Q: What about the half-life ([4]; male, SD, rat, plasma, ip, 5 mg/kg, K01-HL (absorption half-life), i.p. 5 mg/kg) of the same substance?
A: 15.6 ± 5.4 min

Q: What about the half-life ([4]; male, SD, rat, plasma, ip, 5 mg/kg, K10-HL (elimination half-life), i.p. 5 mg/kg) of the same substance?
A: 26.4 ± 6 min

Q: And the AUC(0-inf) [4, 6]?
A: 8530 ± 1600 ng·h/mL

Q: What about the Cmax [4, 6] of the same substance?
A: 30200 ± 14600 ng/mL

Q: What about the MRT [4, 6] of the same substance?
A: 21.6 ± 15.6 min

Q: What about the half-life ([4]; male, SD, rat, plasma, iv, 5 mg/kg, K10-HL (elimination half-life), i.v. 5 mg/kg) of the same substance?
A: 15 ± 10.8 min

Q: What about the AUC(0-inf) [4, 7] of the same substance?
A: 6690 ± 1510 ng·h/mL

Q: And the Cmax [4, 7]?
A: 4110 ± 888 ng/mL

Q: And the Tmax [4, 7]?
A: 36 min

Q: And the bioavailability [4, 7]?
A: 78.5 ± 17.7%

Q: And the half-life ([4]; male, SD, rat, plasma, sc, 5 mg/kg, K01-HL (absorption half-life), s.c. 5 mg/kg)?
A: 24.6 ± 0.6 min

Q: What about the half-life ([4]; male, SD, rat, plasma, sc, 5 mg/kg, K10-HL (elimination half-life), s.c. 5 mg/kg) of the same substance?
A: 25.2 ± 0.24 min

Q: What about the “K01 (absorption constant)” value ([4]; s.c. 5 mg/kg) of the same substance?
A: 1.68 ± 0.02 h⁻¹

Q: And the “K10 (elimination constant)” value ([4]; s.c. 5 mg/kg)?
A: 1.66 ± 0.01 h⁻¹
